Measurements taken from patent publication US9695155B2, “Herbicidal substituted pyrimidinyloxy benzene compounds” (E. I. DU PONT DE NEMOURS AND COMPANY, priority 2013, dated 2017).

What was measured:
[1] = system: giant foxtail; assay: Test A preemergence; assay type: in vivo, Setaria faberii
Summary of the method: (§1)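 Scoring: eye-based comparison with untreated controls, 0 for no effect through 100 for complete control, at about day 10. Treatments: directed soil spray preemergence; foliar spray postemergence on 2–10 cm plants at the one- to two-leaf stage. Medium: loam soil with sand.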

[2] = system: wheat; assay: Test A preemergence; assay type: in vivo, Triticum aestivum
Summary of the method: as §1

[3] = system: morningglory; assay: Test A postemergence; assay type: in vivo, Ipomoea spp.
Summary of the method: as §1

[4] = system: barnyardgrass; assay: Test B flooded paddy test; assay type: in vivo, Echinochloa crus-galli; details: Flood, 250 g ai/ha; 0 to 100 scale where 0 is no effect and 100 is complete control
Summary of the method: (§2)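 2-leaf stage plants; pots flooded to 3 cm, compound added to paddy water, depth maintained. Greenhouse 13–15 d. Visual rating vs untreated controls, 0 (no effect) to 100 (complete control); dash = no result.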

[5] = system: velvetleaf; assay: Test A preemergence; assay type: in vivo, Abutilon theophrasti
Summary of the method: as §1

[6] = system: large (Lg) crabgrass; assay: Test A preemergence; assay type: in vivo, Digitaria sanguinalis
Summary of the method: as §1

[7] = system: morningglory; assay: Test A preemergence; assay type: in vivo, Ipomoea spp.
Summary of the method: as §1

[8] = system: wheat; assay: Test A postemergence; assay type: in vivo, Triticum aestivum
Summary of the method: as §1

[9] = system: pigweed; assay: Test A postemergence; assay type: in vivo, Amaranthus retroflexus
Summary of the method: as §1

[10] = system: velvetleaf; assay: Test A postemergence; assay type: in vivo, Abutilon theophrasti
Summary of the method: as §1

[11] = system: barnyardgrass; assay: Test A preemergence; assay type: in vivo, Echinochloa crus-galli
Summary of the method: as §1

[12] = system: corn; assay: Test A preemergence; assay type: in vivo, Zea mays
Summary of the method: as §1

[13] = system: giant foxtail; assay: Test A postemergence; assay type: in vivo, Setaria faberii
Summary of the method: as §1

[14] = system: pigweed; assay: Test A preemergence; assay type: in vivo, Amaranthus retroflexus
Summary of the method: as §1

[15] = system: Heteranthera limosa; assay: Test B flooded paddy test; assay type: in vivo; details: Flood, 250 g ai/ha; 0 to 100 scale where 0 is no effect and 100 is complete control
Summary of the method: as §2

[16] = system: rice; assay: Test B flooded paddy test; assay type: in vivo, Oryza sativa; details: Flood, 250 g ai/ha; 0 to 100 scale where 0 is no effect and 100 is complete control
Summary of the method: as §2

[17] = system: sedge, umbrella; assay: Test B flooded paddy test; assay type: in vivo, Cyperus difformis; details: Flood, 250 g ai/ha; 0 to 100 scale where 0 is no effect and 100 is complete control
Summary of the method: as §2

[18] = system: large (Lg) crabgrass; assay: Test A postemergence; assay type: in vivo, Digitaria sanguinalis
Summary of the method: as §1

[19] = system: corn; assay: Test A postemergence; assay type: in vivo, Zea mays
Summary of the method: as §1

[20] = system: barnyardgrass; assay: Test A postemergence; assay type: in vivo, Echinochloa crus-galli
Summary of the method: as §1

[21] = 1000 g ai/ha, 0 to 100 scale, 0 no effect, 100 complete control, approx. 10 days
[22] = 1000 g ai/ha, 0 to 100 scale, 0 no effect, 100 complete control
[23] = 125 g ai/ha, 0 to 100 scale where 0 is no effect and 100 is complete control
[24] = 500 g ai/ha, 0 to 100 scale, 0 no effect, 100 complete control, approx. 10 days
[25] = 500 g ai/ha, 0 to 100 scale where 0 is no effect and 100 is complete control
[26] = 500 g ai/ha, 0 to 100 scale, 0 no effect, 100 complete control

Structure (SMILES): FC(F)(F)COc1cccc(Oc2ncc(Cl)cn2)c1-n1cc(Br)cn1 [Compound 69]
- Foxtail, Giant plant response rating [1, 21]: 90
- Wheat plant response rating [2, 21]: 20
- Plant response rating, Morningglory [3, 22]: 30
- Plant response rating, Barnyardgrass [4]: 0
- Velvetleaf plant response rating [5, 21]: 80
- Plant response rating, Crabgrass, Large [6, 22]: 90
- Morningglory plant response rating [7, 21]: 10
- Plant response rating, Wheat [8, 22]: 30
- Plant response rating, Pigweed [9, 22]: 100
- Plant response rating, Velvetleaf [10, 22]: 60
- Plant response rating, Barnyardgrass [11, 22]: 70
- Plant response rating, Corn [12, 22]: 0
- Plant response rating, Foxtail, Giant [13, 22]: 70
- Pigweed plant response rating [14, 21]: 100
- Plant response rating, Ducksalad [15]: 0
- Plant response rating, Rice [16]: 0
- Plant response rating, Sedge, Umbrella [17]: 0
- Plant response rating, Crabgrass, Large [18, 22]: 80
- Plant response rating, Corn [19, 22]: 20
- Plant response rating, Barnyardgrass [20, 22]: 50

Structure (SMILES): Cc1cnc(Oc2cccc(C#N)c2-n2cc(Br)cn2)nc1 [Compound 76]
- Plant response rating, Foxtail, Giant [1, 23]: 80
- Foxtail, Giant plant response rating [1, 24]: 100
- Plant response rating, Wheat [2, 23]: 0
- Wheat plant response rating [2, 24]: 30
- Plant response rating, Morningglory [3, 23]: 60
- Plant response rating, Morningglory [3, 25]: 90
- Plant response rating, Barnyardgrass [4]: 0
- Plant response rating, Velvetleaf [5, 23]: 90
- Velvetleaf plant response rating [5, 24]: 100
- Plant response rating, Crabgrass, Large [6, 23]: 100
- Crabgrass, Large plant response rating [6, 24]: 100
- Plant response rating, Morningglory [7, 23]: 0
- Morningglory plant response rating [7, 24]: 80
- Plant response rating, Wheat [8, 23]: 0
- Plant response rating, Wheat [8, 25]: 10
- Plant response rating, Pigweed [9, 23]: 90
- Plant response rating, Pigweed [9, 25]: 100
- Plant response rating, Velvetleaf [10, 23]: 80
- Plant response rating, Velvetleaf [10, 25]: 100
- Plant response rating, Barnyardgrass [11, 23]: 50
- Barnyardgrass plant response rating [11, 24]: 100
- Plant response rating, Corn [12, 23]: 20
- Corn plant response rating [12, 24]: 30
- Plant response rating, Foxtail, Giant [13, 23]: 60
- Plant response rating, Foxtail, Giant [13, 25]: 90
- Plant response rating, Pigweed [14, 23]: 100
- Pigweed plant response rating [14, 24]: 100
- Plant response rating, Ducksalad [15]: 70
- Plant response rating, Rice [16]: 0
- Plant response rating, Sedge, Umbrella [17]: 75
- Plant response rating, Crabgrass, Large [18, 23]: 70
- Plant response rating, Crabgrass, Large [18, 26]: 100
- Plant response rating, Corn [19, 23]: 10
- Plant response rating, Corn [19, 26]: 80
- Plant response rating, Barnyardgrass [20, 23]: 60
- Plant response rating, Barnyardgrass [20, 26]: 100

Structure (SMILES): Cc1cnn(-c2c(C#N)cccc2Oc2ncc(Cl)cn2)c1 [Compound 95]
- Plant response rating, Foxtail, Giant [1, 23]: 100
- Foxtail, Giant plant response rating [1, 24]: 100
- Plant response rating, Wheat [2, 23]: 0
- Plant response rating, Morningglory [3, 23]: 60
- Plant response rating, Morningglory [3, 25]: 90
- Plant response rating, Barnyardgrass [4]: 0
- Plant response rating, Velvetleaf [5, 23]: 90
- Plant response rating, Crabgrass, Large [6, 23]: 100
- Crabgrass, Large plant response rating [6, 24]: 100
- Plant response rating, Morningglory [7, 23]: 50
- Morningglory plant response rating [7, 24]: 100
- Plant response rating, Wheat [8, 23]: 0
- Plant response rating, Wheat [8, 25]: 40
- Plant response rating, Pigweed [9, 23]: 100
- Plant response rating, Pigweed [9, 25]: 100
- Plant response rating, Velvetleaf [10, 23]: 70
- Plant response rating, Velvetleaf [10, 25]: 100
- Plant response rating, Barnyardgrass [11, 23]: 50
- Barnyardgrass plant response rating [11, 24]: 100
- Plant response rating, Corn [12, 23]: 0
- Corn plant response rating [12, 24]: 40
- Plant response rating, Foxtail, Giant [13, 23]: 40
- Plant response rating, Foxtail, Giant [13, 25]: 80
- Plant response rating, Pigweed [14, 23]: 90
- Pigweed plant response rating [14, 24]: 100
- Plant response rating, Ducksalad [15]: 40
- Plant response rating, Rice [16]: 0
- Plant response rating, Sedge, Umbrella [17]: 50
- Plant response rating, Crabgrass, Large [18, 23]: 40
- Plant response rating, Crabgrass, Large [18, 25]: 90
- Plant response rating, Corn [19, 23]: 10
- Plant response rating, Corn [19, 25]: 70
- Plant response rating, Barnyardgrass [20, 23]: 50
- Plant response rating, Barnyardgrass [20, 25]: 80

Structure (SMILES): COc1cnn(-c2ccccc2Oc2ncc(Cl)cn2)c1 [Compound 186]
- Foxtail, Giant plant response rating (0 to 100 scale) ([1]; 125 g ai/ha): 80
- Foxtail, Giant plant response rating [1, 25]: 100
- Wheat plant response rating (0 to 100 scale) ([2]; 125 g ai/ha): 0
- Wheat plant response rating [2, 25]: 20
- Morningglory plant response rating [3, 23]: 60
- Plant response rating, Morningglory [3, 25]: 100
- Plant response rating, Barnyardgrass [4]: 0
- Velvetleaf plant response rating (0 to 100 scale) ([5]; 125 g ai/ha): 70
- Velvetleaf plant response rating [5, 25]: 100
- Crabgrass, Large plant response rating (0 to 100 scale) ([6]; 125 g ai/ha): 100
- Crabgrass, Large plant response rating [6, 25]: 100
- Morningglory plant response rating (0 to 100 scale) ([7]; 125 g ai/ha): 0
- Morningglory plant response rating [7, 25]: 20
- Wheat plant response rating [8, 23]: 0
- Plant response rating, Wheat [8, 25]: 60
- Pigweed plant response rating [9, 23]: 100
- Plant response rating, Pigweed [9, 25]: 100
- Velvetleaf plant response rating [10, 23]: 80
- Plant response rating, Velvetleaf [10, 25]: 90
- Barnyardgrass plant response rating (0 to 100 scale, 0 is no effect, 100 is complete control) ([11]; 125 g ai/ha): 30
- Barnyardgrass plant response rating [11, 25]: 100
- Corn plant response rating (0 to 100 scale) ([12]; 125 g ai/ha): 0
- Corn plant response rating [12, 25]: 0
- Foxtail, Giant plant response rating [13, 23]: 20
- Plant response rating, Foxtail, Giant [13, 25]: 80
- Pigweed plant response rating (0 to 100 scale) ([14]; 125 g ai/ha): 100
- Pigweed plant response rating [14, 25]: 100
- Plant response rating, Ducksalad [15]: 0
- Plant response rating, Rice [16]: 0
- Plant response rating, Sedge, Umbrella [17]: 0
- Crabgrass, Large plant response rating [18, 23]: 40
- Plant response rating, Crabgrass, Large [18, 25]: 70
- Corn plant response rating [19, 23]: 0
- Plant response rating, Corn [19, 25]: 30
- Barnyardgrass plant response rating [20, 23]: 20
- Plant response rating, Barnyardgrass [20, 25]: 70

Structure (SMILES): N#Cc1cccc(Oc2ncc(Cl)cn2)c1-n1cncn1 [Compound 193]
- Foxtail, Giant plant response rating [1, 21]: 100
- Wheat plant response rating [2, 21]: 20
- Plant response rating, Morningglory [3, 22]: 90
- Plant response rating, Barnyardgrass [4]: 0
- Velvetleaf plant response rating [5, 21]: 90
- Crabgrass, Large plant response rating [6, 21]: 100
- Morningglory plant response rating [7, 21]: 100
- Plant response rating, Wheat [8, 22]: 20
- Plant response rating, Pigweed [9, 22]: 100
- Plant response rating, Velvetleaf [10, 22]: 90
- Barnyardgrass plant response rating [11, 21]: 60
- Corn plant response rating [12, 21]: 20
- Plant response rating, Foxtail, Giant [13, 22]: 80
- Pigweed plant response rating [14, 21]: 100
- Plant response rating, Ducksalad [15]: 0
- Plant response rating, Rice [16]: 0
- Plant response rating, Sedge, Umbrella [17]: 0
- Plant response rating, Crabgrass, Large [18, 22]: 80
- Plant response rating, Corn [19, 22]: 60
- Plant response rating, Barnyardgrass [20, 22]: 90
